Values of other authors, collected in patent publication US11344529B2, “Compositions and methods for the treatment of metabolic conditions” (Reven IP HoldCo LLC, priority 2017, dated 2022).

Legend:
[1] = more than 500 postmenopausal women

In the case of `CC(C)=CCC/C(C)=C/CC/C(C)=C/CC/C(C)=C/CC1=C(C)C(=O)c2ccccc2C1=O` [Vitamin K2], the “association of intake with coronary calcification” value [1] is given as “associated with the trend toward decreasing coronary calcification”, the “total cholesterol, lipid peroxidation, aortic ester cholesterol deposition, plasma factor X activity” value (compared to the control group) is given as “reduce total cholesterol levels, lipid peroxidation, ester cholesterol deposition in the aorta and factor X activity in plasma” and the “atherosclerotic plaque progression in the aorta and pulmonary arteries” value (rabbits, 1-10 mg/kg daily for 10 weeks) is given as “inhibited the atherosclerotic plaque progression”.
